From patent US20050215543A1, “Methods of treating HIV infection” (priority 2004, published 2005)

Assays:
HIV-1 LAI [1] = assay: microbe, parasite or virus in culture; conditions: for Combination Indices at % HIV Inhibition (Confidence Interval) 50%: 50% HIV inhibition; for Combination Indices at % HIV Inhibition (Confidence Interval) 50% / Combination Indices at % HIV Inhibition (Confidence Interval) 75% / Combination Indices at % HIV Inhibition (Confidence Interval) 90%: 95% CI in parenthesis; for Combination Indices at % HIV Inhibition (Confidence Interval) 75%: 75% HIV inhibition; for Combination Indices at % HIV Inhibition (Confidence Interval) 90%: 90% HIV inhibition
uninfected cells = assay: Cytotoxicity assay of drug combinations, uninfected cells, XTT assay; format: cell-based; conditions: combination with Compound 1 at the highest concentrations tested, 6 days
Method: Drug Susceptibility and Cytotoxicity Assays. […] Each drug ratio consisted of an array of 3-fold serial dilutions, and was performed in quadruplicate. The plates were incubated at 37° C./5% CO2. […] On day-five post-infection, 20 μl from each well was harvested and quantitated by a reverse transcriptase (RT) assay, or in samples involving non-nucleoside RT inhibitors, an MTS assay. The PM-1 cells infected with HIV-1 Bal and used for studying the combinations with CCR5 inhibitors were incubated for six days. On day-six post-infection, 20 μl from each well was harvested, 20- and 50-fold diluted and quantitated by p24 assay. Cytotoxicity assays were performed using uninfected cells, exposed to the same drug combinations, and incubated for six days. Cell viability was determined by an XTT assay. The CC50 values were calculated by using the exponential form of the median effect equation as mentioned below for calculation of EC50.

HIV-1 LAI [2] = assay: Drug susceptibility assay, MT-2 cells infected with HIV-1 LAI, MTS assay readout (samples involving non-nucleoside RT inhibitors); format: cell-based; conditions: for Combination Indices at % HIV Inhibition (Confidence Interval) 50%: 50% HIV inhibition; for Combination Indices at % HIV Inhibition (Confidence Interval) 50% / Combination Indices at % HIV Inhibition (Confidence Interval) 75% / Combination Indices at % HIV Inhibition (Confidence Interval) 90%: MTS readout, 95% CI in parenthesis; for Combination Indices at % HIV Inhibition (Confidence Interval) 75%: 75% HIV inhibition; for Combination Indices at % HIV Inhibition (Confidence Interval) 90%: 90% HIV inhibition; for Overall Result: two-drug combination with Compound 1, all ratios and effect levels, MT-2/HIV-1 LAI, MTS assay
Method: (§1) Virus and cell lines. The T-cell lines, MT-2 and PM-1 were obtained through the AIDS Research and Reference Reagent Program, NIAID, and were contributed by Dr. D. Richman and Dr. R. Gallo, respectively. Both cell lines were cultured in RPMI 1640 medium supplemented with 10% fetal bovine serum, 2 mM L-glutamine and sub-cultured twice a week. The LAI strain of HIV-1 was obtained from the Fred Hutchinson Cancer Research Center, and the Bal strain was from NIH. Both virus stocks were amplified and titered in MT-2 cells (LAI) and PM-1 cells (Bal) using a virus infectivity assay.
(§2) Drug Susceptibility and Cytotoxicity Assays. For drug susceptibility assays, MT-2 cells were infected with HIV-1 LAI (or PM-1 cells with HIV-1 Bal) at an MOI of 0.005, and seeded into 96-well microtiter plates (0.1×10^6 cells/ml) containing serial dilutions of test compounds. […] Each drug ratio consisted of an array of 3-fold serial dilutions, and was performed in quadruplicate. The plates were incubated at 37° C./5% CO2. The MT-2 cells infected with HIV-1 LAI were incubated for 5 days. On day-five post-infection, 20 μl from each well was harvested and quantitated by a reverse transcriptase (RT) assay, or in samples involving non-nucleoside RT inhibitors, an MTS assay. The PM-1 cells infected with HIV-1 Bal and used for studying the combinations with CCR5 inhibitors were incubated for six days. On day-six post-infection, 20 μl from each well was harvested, 20- and 50-fold diluted and quantitated by p24 assay. Cytotoxicity assays were performed using uninfected cells, exposed to the same drug combinations, and incubated for six days. Cell viability was determined by an XTT assay. The CC50 values were calculated by using the exponential form of the median effect equation as mentioned below for calculation of EC50.
(§3) Analysis of Drug Combination Effects. For determination of CI values, drugs were diluted in a fixed ratio and multiple ratios were analyzed. The drug serial dilutions spanned a range of concentrations near the EC50 value of each compound, so that equivalent antiviral activities could be compared. Concentration-response curves were estimated for each individual drug and every combination using the median-effect equation. The equation was fit using a nonlinear regression routine (Proc Nlin) in PC SAS version 8.01 (SAS Institute Inc., SAS Version 8.01, Cary, N.C.: SAS Institute Inc., 1990).
(§4) In this equation, Fa stands for “fraction affected,” and represents the fraction of the viral load that has been inactivated. […] ED50 is drug concentration that is expected to reduce the amount of virus by 50%, and m is a parameter that reflects the slope of the concentration-response curve.
(§5) To assess antiviral effects of different drug combination treatments, combination indices (CIs) were calculated according to Chou and Rideout. The combination index was computed as CI=[D]1/[Dm]1+[D]2/[Dm]2
(§6) In this equation [Dm]1 and [Dm]2 are the concentrations of drugs that would individually produce a specific level of effect, while [D]1 and [D]2 are the concentrations of drugs in combination that would produce the same level of effect.
(§7) Theoretically, additivity is implied if the CI is equal to one, synergy if the CI is less than one, and antagonism if the CI is greater than one. […] At best, we can construct a range that contains the likely values for the CI, given the noise in the data. In this report, these ranges are reported in parentheses next to each point estimate of the CI. […] If the range fell entirely above 1.0, we would infer antagonistic behavior. If the range were to include 1.0, we would infer additivity.
(§8) In carrying out the combination experiments below, the EC50 for Compound 1 and each comparator compound was determined during the course of each study, and used in the subsequent data analysis.

HIV-1 Bal = assay: Drug susceptibility assay, PM-1 cells infected with HIV-1 Bal, p24 assay readout (combinations with CCR5 inhibitors); format: cell-based; conditions: for Combination Indices at % HIV Inhibition (Confidence Interval) 50%: 50% HIV inhibition; for Combination Indices at % HIV Inhibition (Confidence Interval) 50% / Combination Indices at % HIV Inhibition (Confidence Interval) 75% / Combination Indices at % HIV Inhibition (Confidence Interval) 90% / Overall Result: PM-1/HIV-1 Bal; for Combination Indices at % HIV Inhibition (Confidence Interval) 50% / Combination Indices at % HIV Inhibition (Confidence Interval) 75% / Combination Indices at % HIV Inhibition (Confidence Interval) 90%: p24, 95% CI in parenthesis; for Combination Indices at % HIV Inhibition (Confidence Interval) 75%: 75% HIV inhibition; for Combination Indices at % HIV Inhibition (Confidence Interval) 90%: 90% HIV inhibition; for EC50: single drug, PM-1 cells, HIV-1 Bal, MOI 0.005, 6 days, p24 assay (CCR5 inhibitors); for Overall Result: two-drug combination with Compound 1, all ratios and effect levels, p24 assay
Method: as §1, §2, §3, §4, §5, §6, §7, §8

[3] = combination with Compound 1, EC50 ratio 1:1
[4] = combination with Compound 1, EC50 ratio 1:2.5
[5] = combination with Compound 1, EC50 ratio 2.5:1

SMILES: CON(Cc1ccc(F)cc1)C(=O)C=C(O)C(=O)O [Compound 2, 3-[(4-fluorobenzyl)methoxycarbamoyl]-2-hydroxyacrylic acid]
- EC50 (HIV-1 LAI [1]; Human immunodeficiency virus 1, MT2, 120 h): 39 nM
- Combination Indices at % HIV Inhibition (Confidence Interval) 50% (HIV-1 LAI [1]; combination with Compound 1, EC50 ratio 1:1 (Compound 1:comparator)): 0.92 (0.77, 1.06)
- Combination Indices at % HIV Inhibition (Confidence Interval) 75% (HIV-1 LAI [1]; [3]): 0.90 (0.70, 1.10)
- Combination Indices at % HIV Inhibition (Confidence Interval) 90% (HIV-1 LAI [1]; [3]): 0.89 (0.58, 1.21)
- Combination Indices at % HIV Inhibition (Confidence Interval) 50% (HIV-1 LAI [1]; [4]): 0.71 (0.60, 0.82)
- Combination Indices at % HIV Inhibition (Confidence Interval) 75% (HIV-1 LAI [1]; [4]): 0.66 (0.51, 0.80)
- Combination Indices at % HIV Inhibition (Confidence Interval) 90% (HIV-1 LAI [1]; [4]): 0.61 (0.40, 0.82)
- Combination Indices at % HIV Inhibition (Confidence Interval) 50% (HIV-1 LAI [1]; [5]): 0.41 (0.36, 0.47)
- Combination Indices at % HIV Inhibition (Confidence Interval) 75% (HIV-1 LAI [1]; [5]): 0.41 (0.33, 0.48)
- Combination Indices at % HIV Inhibition (Confidence Interval) 90% (HIV-1 LAI [1]; [5]): 0.40 (0.28, 0.52)
- cytotoxicity of the drug combination (uninfected cells): No significant cytotoxicity

SMILES: Cc1ccnc2c1NC(=O)c1cccnc1N2C1CC1 [Nevirapine, nevirapine]
- EC50 (HIV-1 LAI [2]; Human immunodeficiency virus 1, MT2, 120 h, single drug, MT-2 cells, HIV-1 LAI, MOI 0.005, 5 days, MTS assay (non-nucleoside RT inhibitors)): 63 nM
- Combination Indices at % HIV Inhibition (Confidence Interval) 50% (HIV-1 LAI [2]; [3]): 0.87 (0.79, 0.94)
- Combination Indices at % HIV Inhibition (Confidence Interval) 75% (HIV-1 LAI [2]; [3]): 0.80 (0.69, 0.90)
- Combination Indices at % HIV Inhibition (Confidence Interval) 90% (HIV-1 LAI [2]; [3]): 0.74 (0.58, 0.89)
- Combination Indices at % HIV Inhibition (Confidence Interval) 50% (HIV-1 LAI [2]; [4]): 0.85 (0.74, 0.96)
- Combination Indices at % HIV Inhibition (Confidence Interval) 75% (HIV-1 LAI [2]; [4]): 0.68 (0.58, 0.79)
- Combination Indices at % HIV Inhibition (Confidence Interval) 90% (HIV-1 LAI [2]; [4]): 0.55 (0.43, 0.66)
- Combination Indices at % HIV Inhibition (Confidence Interval) 50% (HIV-1 LAI [2]; [5]): 0.71 (0.62, 0.81)
- Combination Indices at % HIV Inhibition (Confidence Interval) 75% (HIV-1 LAI [2]; [5]): 0.63 (0.52, 0.73)
- Combination Indices at % HIV Inhibition (Confidence Interval) 90% (HIV-1 LAI [2]; [5]): 0.56 (0.42, 0.70)
- Overall Result (HIV-1 LAI [2]): Synergistic
- Overall Result (HIV-1 LAI [2]; listed as nevirapine): strong synergistic effects

SMILES: CCO/N=C(\c1ccc(Br)cc1)C1CCN(C2(C)CCN(C(=O)c3c(C)cc[n+]([O-])c3C)CC2)CC1 [Sch-C]
- Combination Indices at % HIV Inhibition (Confidence Interval) 50% (HIV-1 Bal; [3]): 0.63 (0.51, 0.74)
- Combination Indices at % HIV Inhibition (Confidence Interval) 75% (HIV-1 Bal; [3]): 0.70 (0.52, 0.89)
- Combination Indices at % HIV Inhibition (Confidence Interval) 90% (HIV-1 Bal; [3]): 0.80 (0.46, 1.13)
- Combination Indices at % HIV Inhibition (Confidence Interval) 50% (HIV-1 Bal; [4]): 0.49 (0.41, 0.58)
- Combination Indices at % HIV Inhibition (Confidence Interval) 75% (HIV-1 Bal; [4]): 0.65 (0.49, 0.80)
- Combination Indices at % HIV Inhibition (Confidence Interval) 90% (HIV-1 Bal; [4]): 0.86 (0.52, 1.19)
- Combination Indices at % HIV Inhibition (Confidence Interval) 50% (HIV-1 Bal; [5]): 0.24 (0.19, 0.28)
- Combination Indices at % HIV Inhibition (Confidence Interval) 75% (HIV-1 Bal; [5]): 0.36 (0.27, 0.45)
- Combination Indices at % HIV Inhibition (Confidence Interval) 90% (HIV-1 Bal; [5]): 0.55 (0.31, 0.79)
- EC50 (HIV-1 Bal): 3 nM
- Overall Result (HIV-1 Bal): moderate synergistic to synergistic

SMILES: COC[C@@H](c1ccc(C(F)(F)F)cc1)N1CCN(C2(C)CCN(C(=O)c3c(C)ncnc3C)CC2)C[C@@H]1C [Sch-D]
- Combination Indices at % HIV Inhibition (Confidence Interval) 50% (HIV-1 Bal; [3]): 0.49 (0.43, 0.55)
- Combination Indices at % HIV Inhibition (Confidence Interval) 75% (HIV-1 Bal; [3]): 0.41 (0.34, 0.49)
- Combination Indices at % HIV Inhibition (Confidence Interval) 90% (HIV-1 Bal; [3]): 0.36 (0.26, 0.46)
- Combination Indices at % HIV Inhibition (Confidence Interval) 50% (HIV-1 Bal; [4]): 0.71 (0.62, 0.81)
- Combination Indices at % HIV Inhibition (Confidence Interval) 75% (HIV-1 Bal; [4]): 0.55 (0.44, 0.65)
- Combination Indices at % HIV Inhibition (Confidence Interval) 90% (HIV-1 Bal; [4]): 0.44 (0.31, 0.57)
- Combination Indices at % HIV Inhibition (Confidence Interval) 50% (HIV-1 Bal; [5]): 0.51 (0.45, 0.56)
- Combination Indices at % HIV Inhibition (Confidence Interval) 75% (HIV-1 Bal; [5]): 0.55 (0.47, 0.63)
- Combination Indices at % HIV Inhibition (Confidence Interval) 90% (HIV-1 Bal; [5]): 0.61 (0.46, 0.75)
- EC50 (HIV-1 Bal): 0.5 nM
- Overall Result (HIV-1 Bal): moderate synergistic to synergistic
